Source: the NIST ThermoML archive (doi:10.1016/j.tca.2014.05.028)
Numbers after ± are expanded uncertainties.

Assay: xn = mol fraction of the nth substance listed
Settings: 101 kPa, Liquid; for viscosity: Falling or rolling sphere viscometry; for mass density: Vibrating tube method

## CCC[N+]1(C)CCCC1.[Br-] [1-methyl-1-propylpyrrolidinium bromide] + O
323.15 K, x1 = 0.0315
  viscosity: 0.865 ± 0.052 mPa·s
  mass density: 1048.87 ± 0.39 kg/m3
323.15 K, x1 = 0.0664
  viscosity: 1.431 ± 0.087 mPa·s
  mass density: 1097.37 ± 0.33 kg/m3
323.15 K, x1 = 0.0983
  viscosity: 2.372 ± 0.14 mPa·s
  mass density: 1131.54 ± 0.29 kg/m3
323.15 K, x1 = 0.1376
  viscosity: 3.542 ± 0.21 mPa·s
  mass density: 1161.28 ± 0.28 kg/m3
323.15 K, x1 = 0.1685
  viscosity: 4.937 ± 0.3 mPa·s
  mass density: 1179.46 ± 0.27 kg/m3
323.15 K, x1 = 0.2138
  viscosity: 7.49 ± 0.45 mPa·s
  mass density: 1199.83 ± 0.29 kg/m3
323.15 K, x1 = 0.2382
  viscosity: 9.11 ± 0.55 mPa·s
  mass density: 1208.53 ± 0.3 kg/m3
323.15 K, x1 = 0.27
  viscosity: 11.75 ± 0.71 mPa·s
  mass density: 1218.61 ± 0.31 kg/m3
323.15 K, x1 = 0.3143
  viscosity: 15.69 ± 0.95 mPa·s
  mass density: 1228.44 ± 0.34 kg/m3
323.15 K, x1 = 0.3535
  viscosity: 20.44 ± 1.2 mPa·s
  mass density: 1235.27 ± 0.37 kg/m3
323.15 K, x1 = 1
  mass density: 1240 ± 1.4 kg/m3
328.15 K, x1 = 0.0315
  viscosity: 0.771 ± 0.047 mPa·s
  mass density: 1045.65 ± 0.39 kg/m3
328.15 K, x1 = 0.0664
  viscosity: 1.254 ± 0.076 mPa·s
  mass density: 1094.2 ± 0.33 kg/m3
328.15 K, x1 = 0.0983
  viscosity: 2.085 ± 0.13 mPa·s
  mass density: 1128.16 ± 0.29 kg/m3
328.15 K, x1 = 0.1376
  viscosity: 3.021 ± 0.18 mPa·s
  mass density: 1157.76 ± 0.28 kg/m3
328.15 K, x1 = 0.1685
  viscosity: 4.183 ± 0.25 mPa·s
  mass density: 1175.88 ± 0.27 kg/m3
328.15 K, x1 = 0.2138
  viscosity: 6.287 ± 0.38 mPa·s
  mass density: 1196.26 ± 0.29 kg/m3
328.15 K, x1 = 0.2382
  viscosity: 7.586 ± 0.46 mPa·s
  mass density: 1205 ± 0.29 kg/m3
328.15 K, x1 = 0.27
  viscosity: 9.732 ± 0.59 mPa·s
  mass density: 1215.12 ± 0.31 kg/m3
328.15 K, x1 = 0.3143
  viscosity: 12.85 ± 0.78 mPa·s
  mass density: 1225.02 ± 0.34 kg/m3
328.15 K, x1 = 0.3535
  viscosity: 16.54 ± 1 mPa·s
  mass density: 1231.95 ± 0.36 kg/m3
328.15 K, x1 = 1
  mass density: 1236.08 ± 1.4 kg/m3
333.15 K, x1 = 0.0315
  viscosity: 0.695 ± 0.042 mPa·s
  mass density: 1041.46 ± 0.38 kg/m3
333.15 K, x1 = 0.0664
  viscosity: 1.112 ± 0.067 mPa·s
  mass density: 1090.9 ± 0.33 kg/m3
333.15 K, x1 = 0.0983
  viscosity: 1.841 ± 0.11 mPa·s
  mass density: 1124.72 ± 0.29 kg/m3
333.15 K, x1 = 0.1376
  viscosity: 2.61 ± 0.16 mPa·s
  mass density: 1154.2 ± 0.28 kg/m3
333.15 K, x1 = 0.1685
  viscosity: 3.597 ± 0.22 mPa·s
  mass density: 1172.28 ± 0.27 kg/m3
333.15 K, x1 = 0.2138
  viscosity: 5.348 ± 0.32 mPa·s
  mass density: 1192.68 ± 0.29 kg/m3
333.15 K, x1 = 0.2382
  viscosity: 6.425 ± 0.39 mPa·s
  mass density: 1201.44 ± 0.29 kg/m3
333.15 K, x1 = 0.27
  viscosity: 8.189 ± 0.5 mPa·s
  mass density: 1211.61 ± 0.31 kg/m3
333.15 K, x1 = 0.3143
  viscosity: 10.73 ± 0.65 mPa·s
  mass density: 1221.59 ± 0.33 kg/m3
333.15 K, x1 = 0.3535
  viscosity: 13.7 ± 0.83 mPa·s
  mass density: 1228.68 ± 0.36 kg/m3
333.15 K, x1 = 1
  mass density: 1232.19 ± 1.4 kg/m3
338.15 K, x1 = 0.0315
  viscosity: 0.64 ± 0.039 mPa·s
  mass density: 1036.23 ± 0.38 kg/m3
338.15 K, x1 = 0.0664
  viscosity: 1.01 ± 0.061 mPa·s
  mass density: 1087.31 ± 0.33 kg/m3
338.15 K, x1 = 0.0983
  viscosity: 1.651 ± 0.1 mPa·s
  mass density: 1121.23 ± 0.29 kg/m3
338.15 K, x1 = 0.1376
  viscosity: 2.311 ± 0.14 mPa·s
  mass density: 1150.6 ± 0.27 kg/m3
338.15 K, x1 = 0.1685
  viscosity: 3.174 ± 0.19 mPa·s
  mass density: 1168.66 ± 0.27 kg/m3
338.15 K, x1 = 0.2138
  viscosity: 4.677 ± 0.28 mPa·s
  mass density: 1189.07 ± 0.28 kg/m3
338.15 K, x1 = 0.2382
  viscosity: 5.592 ± 0.34 mPa·s
  mass density: 1197.87 ± 0.29 kg/m3
338.15 K, x1 = 0.27
  viscosity: 7.083 ± 0.43 mPa·s
  mass density: 1208.09 ± 0.31 kg/m3
338.15 K, x1 = 0.3143
  viscosity: 9.191 ± 0.56 mPa·s
  mass density: 1218.14 ± 0.33 kg/m3
338.15 K, x1 = 0.3535
  viscosity: 11.65 ± 0.71 mPa·s
  mass density: 1225.35 ± 0.36 kg/m3
338.15 K, x1 = 1
  mass density: 1228.32 ± 1.3 kg/m3
343.15 K, x1 = 0.0315
  viscosity: 0.574 ± 0.035 mPa·s
  mass density: 1030.46 ± 0.38 kg/m3
343.15 K, x1 = 0.0664
  viscosity: 0.881 ± 0.053 mPa·s
  mass density: 1083.03 ± 0.34 kg/m3
343.15 K, x1 = 0.0983
  viscosity: 1.326 ± 0.08 mPa·s
  mass density: 1117.67 ± 0.29 kg/m3
343.15 K, x1 = 0.1376
  viscosity: 1.931 ± 0.12 mPa·s
  mass density: 1146.98 ± 0.27 kg/m3
343.15 K, x1 = 0.1685
  viscosity: 2.763 ± 0.17 mPa·s
  mass density: 1165.01 ± 0.27 kg/m3
343.15 K, x1 = 0.2138
  viscosity: 4.018 ± 0.24 mPa·s
  mass density: 1185.45 ± 0.28 kg/m3
343.15 K, x1 = 0.2382
  viscosity: 4.784 ± 0.29 mPa·s
  mass density: 1194.28 ± 0.29 kg/m3
343.15 K, x1 = 0.27
  viscosity: 6.011 ± 0.36 mPa·s
  mass density: 1204.56 ± 0.31 kg/m3
343.15 K, x1 = 0.3143
  viscosity: 7.777 ± 0.47 mPa·s
  mass density: 1214.68 ± 0.33 kg/m3
343.15 K, x1 = 0.3535
  viscosity: 9.762 ± 0.59 mPa·s
  mass density: 1221.99 ± 0.36 kg/m3
343.15 K, x1 = 1
  mass density: 1224.48 ± 1.3 kg/m3
